Experimental data: ChEMBL document CHEMBL2203204, “Identification of selective inhibitors of indoleamine 2,3-dioxygenase 2” (Bioorg Med Chem Lett, 2012)
pIC50: −log10 of the molar value. Active and inactive are the calls of the source. The calls are words filed in the database; no cut-off is given here.

How the values were obtained:
[1] = molecular target: T1, Indoleamine 2,3-dioxygenase 2 (Mus musculus) (UniProt Q8R0V5); conditions: HEK-293T, at 20 µM
T1 sequence (whole entry): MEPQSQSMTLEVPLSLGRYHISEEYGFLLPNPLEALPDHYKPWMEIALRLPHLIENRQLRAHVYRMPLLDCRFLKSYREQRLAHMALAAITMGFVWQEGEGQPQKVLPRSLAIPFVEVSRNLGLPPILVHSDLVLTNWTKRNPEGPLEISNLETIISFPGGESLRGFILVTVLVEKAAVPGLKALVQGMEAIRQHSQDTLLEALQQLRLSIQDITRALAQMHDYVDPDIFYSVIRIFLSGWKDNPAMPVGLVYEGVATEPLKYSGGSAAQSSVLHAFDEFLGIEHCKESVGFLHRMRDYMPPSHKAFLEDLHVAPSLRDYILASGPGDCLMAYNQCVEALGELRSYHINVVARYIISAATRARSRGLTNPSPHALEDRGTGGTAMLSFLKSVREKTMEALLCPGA
Description: (§1) Inhibition of mouse Ido2 transfected in HEK293T cells using L-tryptophan as substrate assessed as kynurenine formation at 20 uM after 45 mins by spectrophotometric analysis relative to control

[2] = molecular target: Tryptophan 2,3-dioxygenase (Mus musculus) (UniProt P48776); experiment: Inhibition of mouse Tdo2 transfected in HEK293T cells using L-tryptophan as substrate assessed as kynurenine formation at 100 uM after 45 mins by spectrophotometric analysis relative to control; format: cell-based; conditions: HEK-293T
[3] = molecular target: Indoleamine 2,3-dioxygenase 1 (Mus musculus, UniProt P28776); experiment: Inhibition of mouse Ido1 transfected in HEK293T cells using L-tryptophan as substrate assessed as kynurenine formation after 45 mins by spectrophotometric analysis; format: cell-based, HEK-293T
[4] = molecular target: T2, Indoleamine 2,3-dioxygenase 2 (Mus musculus, UniProt Q8R0V5); experiment: Inhibition of mouse Ido2 transfected in HEK293T cells using L-tryptophan as substrate assessed as kynurenine formation after 45 mins by spectrophotometric analysis; format: cell-based, HEK-293T
T2 sequence (Q8R0V5 whole entry): T1 sequence (whole entry)

HEK-293T = experiment: Cytotoxicity against HEK293T cells assessed as decrease in cell viability at 25 uM after 24 hrs by trypan blue exclusion assay; format: cell-based; conditions: human
Mus musculus = organism: Mus musculus; experiment: Selectivity ratio of IC50 for mouse Ido1 to IC50 for mouse Ido2
[5] = molecular target: Indoleamine 2,3-dioxygenase 1 (Mus musculus) (UniProt P28776); experiment: Inhibition of mouse Ido1 transfected in HEK293T cells using L-tryptophan as substrate assessed as residual activity at 100 uM after 45 mins by spectrophotometric analysis relative to control; format: cell-based; conditions: HEK-293T
[6] = molecular target: T1, Indoleamine 2,3-dioxygenase 2 (Mus musculus); experiment: Inhibition of mouse Ido2 transfected in HEK293T cells using L-tryptophan as substrate assessed as assessed as residual activity at 100 uM after 45 mins by spectrophotometric analysis relative to control; format: cell-based; conditions: HEK-293T
[7] = molecular target: Indoleamine 2,3-dioxygenase 2 (Mus musculus) (UniProt Q8R0V5); conditions: HEK-293T, at 20 µM; remark: listed apart in the source
Description: as §1

Chain of Indoleamine 2,3-dioxygenase 1 (P28776 whole entry): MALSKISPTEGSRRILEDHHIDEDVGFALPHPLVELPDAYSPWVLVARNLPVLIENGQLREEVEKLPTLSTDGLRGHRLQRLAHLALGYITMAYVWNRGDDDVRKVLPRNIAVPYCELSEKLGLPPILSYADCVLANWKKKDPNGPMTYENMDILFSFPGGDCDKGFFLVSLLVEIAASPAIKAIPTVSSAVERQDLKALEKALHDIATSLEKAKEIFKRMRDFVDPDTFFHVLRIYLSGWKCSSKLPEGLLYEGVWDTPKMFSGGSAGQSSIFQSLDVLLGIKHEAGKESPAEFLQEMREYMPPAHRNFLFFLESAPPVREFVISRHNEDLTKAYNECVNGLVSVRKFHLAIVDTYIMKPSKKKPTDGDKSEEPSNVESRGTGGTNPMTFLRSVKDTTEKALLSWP
Chain of Tryptophan 2,3-dioxygenase (Mus musculus) (P48776 whole entry): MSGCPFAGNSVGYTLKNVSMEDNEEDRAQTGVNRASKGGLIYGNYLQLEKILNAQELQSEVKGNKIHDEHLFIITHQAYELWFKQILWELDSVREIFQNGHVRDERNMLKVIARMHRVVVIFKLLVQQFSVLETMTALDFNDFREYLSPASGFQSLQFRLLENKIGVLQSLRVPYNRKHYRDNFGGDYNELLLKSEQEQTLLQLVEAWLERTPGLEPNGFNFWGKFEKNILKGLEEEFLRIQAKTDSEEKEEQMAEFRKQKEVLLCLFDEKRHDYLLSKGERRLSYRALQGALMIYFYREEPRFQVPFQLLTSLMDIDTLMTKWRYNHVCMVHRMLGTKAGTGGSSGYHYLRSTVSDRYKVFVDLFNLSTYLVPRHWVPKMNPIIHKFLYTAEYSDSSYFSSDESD
Chain of Indoleamine 2,3-dioxygenase 1 (Mus musculus) (P28776 whole entry, looked up): as the sequence (P28776 whole entry) above

CC#CCC(C)[C@H](O)/C=C/[C@@H]1[C@H]2C/C(=C/CCCC(=O)O)C[C@H]2C[C@H]1O (some centres not stated)
inhibition [1]: > 55%

CC(C)C[C@H]1C(=O)N2CCC[C@H]2[C@]2(O)O[C@](NC(=O)[C@@H]3C=C4c5cccc6[nH]c(Br)c(c56)C[C@H]4N(C)C3)(C(C)C)C(=O)N12
inhibition [1]: > 55%

CC(C)OC(=O)C(C)(C)Oc1ccc(C(=O)c2ccc(Cl)cc2)cc1
inhibition [1]: > 55%

CC(c1cc2ccccc2s1)N(O)C(N)=O (configuration not stated)
inhibition [1]: > 55%

CC1=C(C)C(=O)C(CCCCC#CCCCC#CCO)=C(C)C1=O
inhibition [1]: > 55%

CCCCCN(CCCCC)C(=O)C(CCC(=O)O)NC(=O)c1ccc(Cl)c(Cl)c1 (configuration not stated)
inhibition [1]: > 55%

CCCSc1ccc2[nH]c(NC(=O)OC)nc2c1
inhibition [1]: > 55%

CCC[S+]([O-])c1ccc2[nH]c(NC(=O)OC)nc2c1 (configuration not stated)
inhibition [1]: > 55%

CCCc1nc2c(C)cc(-c3nc4ccccc4n3C)cc2n1Cc1ccc(-c2ccccc2C(=O)O)cc1
inhibition [1]: > 55%

CCN(CC)C(=S)SSC(=S)N(CC)CC
inhibition [1]: > 55%

CCN(CC)CCCC(C)Nc1c2ccc(Cl)cc2nc2ccc(OC)cc12 (configuration not stated)
inhibition [1]: > 55%

CCOC(=O)C1=C(C)NC(C)=C(C(=O)OC)C1c1cccc(Cl)c1Cl (configuration not stated)
inhibition [1]: > 55%

CCOC(=O)C1=C(C)NC(C)=C(C(=O)OC)C1c1cccc([N+](=O)[O-])c1 (configuration not stated)
inhibition [1]: > 55%

CCOC(=O)C1=C(C)NC(C)=C(C(=O)OCC)C1c1ccccc1/C=C/C(=O)OC(C)(C)C
inhibition [1]: > 55%

CC[C@@H](C(N)=O)N1CCCC1=O
inhibition [1]: > 55%

CN1C[C@H](C(=O)N[C@]2(C)O[C@@]3(O)[C@@H]4CCCN4C(=O)[C@H](Cc4ccccc4)N3C2=O)C=C2c3cccc4[nH]cc(c34)C[C@H]21
inhibition [1]: > 55%

COC(=O)C1=C(C)NC(C)=C(C(=O)OCC(C)C)C1c1ccccc1[N+](=O)[O-] (configuration not stated)
inhibition [1]: > 55%

COC(=O)C1=C(C)NC(C)=C(C(=O)OCCN(C)Cc2ccccc2)C1c1cccc([N+](=O)[O-])c1 (configuration not stated)
inhibition [1]: > 55%

COC(=O)Nc1nc2cc(C(=O)c3ccccc3)ccc2[nH]1
inhibition [1]: > 55%

COC(=O)Nc1nc2cc([S+]([O-])c3ccccc3)ccc2[nH]1 (configuration not stated)
inhibition [1]: > 55%

COCCOC(=O)C1=C(C)NC(C)=C(C(=O)OC(C)C)C1c1cccc([N+](=O)[O-])c1 (configuration not stated)
inhibition [1]: > 55%

COCCOC(=O)C1=C(C)NC(C)=C(C(=O)OC/C=C/c2ccccc2)C1c1cccc([N+](=O)[O-])c1 (configuration not stated)
inhibition [1]: > 55%

COc1cc2c(cc1OC)-c1c/c(=N\c3c(C)cc(C)cc3C)n(C)c(=O)n1CC2
inhibition [1]: > 55%

COc1cc2nc(N(C)CCCNC(=O)C3CCCO3)nc(N)c2cc1OC (configuration not stated)
inhibition [1]: > 55%

COc1ccccc1OCCNCC(O)COc1cccc2[nH]c3ccccc3c12 (configuration not stated)
inhibition [1]: > 55%

COc1ccnc(C[S+]([O-])c2nc3cc(OC(F)F)ccc3[nH]2)c1OC (configuration not stated)
inhibition [2]: inactive

C[C@@H]1CC[C@H]2[C@@H](C)C(=O)O[C@@H]3O[C@@]4(C)CC[C@@H]1[C@]32OO4
inhibition [1]: > 55%

C[C@H](CS)C(=O)N1CCC[C@H]1C(=O)O
inhibition [1]: > 55%

Clc1ccc(C(Cn2ccnc2)OCc2ccsc2Cl)c(Cl)c1 (configuration not stated)
inhibition [1]: > 55%

Clc1ccc(C(Cn2ccnc2)OCc2csc3c(Cl)cccc23)c(Cl)c1 (configuration not stated)
inhibition [1]: > 55%

Clc1ccc(CO/N=C(\Cn2ccnc2)c2ccc(Cl)cc2Cl)c(Cl)c1
inhibition [1]: > 55%

NC[C@H]1CC[C@H](C(=O)O)CC1
inhibition [1]: > 55%

O=C(O)Cc1sc(-c2ccccc2)nc1-c1ccc(Cl)cc1
inhibition [1]: > 55%

O=C1Nc2ccc(Cl)cc2[C@@](C#CC2CC2)(C(F)(F)F)O1
inhibition [1]: > 55%

OCCN(CCO)c1nc(N2CCCCC2)c2nc(N(CCO)CCO)nc(N3CCCCC3)c2n1
inhibition [1]: > 55%

c1ccc(-c2ccc(C(c3ccccc3)n3ccnc3)cc2)cc1 (configuration not stated)
inhibition [1]: > 55%

Clc1ccccc1C(c1ccccc1)(c1ccccc1)n1ccnc1 [CLOTRIMAZOLE]
pIC50 [3]: 4.29
inhibition [2]: > 95%
pIC50 [4]: 5.23

Clc1ccc(COC(Cn2ccnc2)c2ccc(Cl)cc2Cl)cc1 (configuration not stated) [ECONAZOLE]
pIC50 [3]: 4.95
inhibition [2]: > 95%
pIC50 [4]: 5.12

CC1=C(/C=C/C(C)=C/C=C/C(C)=C/C(=O)Nc2ccc(O)cc2)C(C)(C)CCC1 [FENRETINIDE]
pIC50 [3]: 4.22
inhibition [2]: 32%
pIC50 [4]: 4.73
Activity (HEK-293T): Non-toxic
inhibition [1]: > 55%

Cc1c(OCC(F)(F)F)ccnc1C[S+]([O-])c1nc2ccccc2[nH]1 (configuration not stated) [LANSOPRAZOLE]
pIC50 [3]: 4.03
inhibition [2]: < 20%
pIC50 [4]: 5.09
Activity (HEK-293T): Non-toxic

Clc1ccc(COC(Cn2ccnc2)c2ccc(Cl)cc2Cl)c(Cl)c1 (configuration not stated) [MICONAZOLE]
pIC50 [3]: 4.75
inhibition [2]: > 95%
pIC50 [4]: 5.17
Activity (HEK-293T): Non-toxic
inhibition [1]: > 55%

COC(=O)C1=C(C)NC(C)=C(C(=O)OC)C1c1ccccc1[N+](=O)[O-] [NIFEDIPINE]
pIC50 [3]: 4.34
Ratio IC50 (Mus musculus): 30
inhibition [2]: < 20%
pIC50 [4]: 5.82
inhibition [1]: > 55%

COc1ccnc(C[S+]([O-])c2nc3ccc(OC(F)F)cc3[nH]2)c1OC (configuration not stated) [PANTOPRAZOLE]
pIC50 [3]: 3.96
pIC50 [4]: 4.90

CCCc1nn(C)c2c(=O)[nH]c(-c3cc(S(=O)(=O)N4CCN(C)CC4)ccc3OCC)nc12 [SILDENAFIL]
pIC50 [3]: < 4.00
inhibition [2]: inactive
pIC50 [4]: 5.35
inhibition [1]: > 55%

Clc1ccc(CSC(Cn2ccnc2)c2ccc(Cl)cc2Cl)cc1 (configuration not stated) [SULCONAZOLE]
pIC50 [3]: 4.53
inhibition [2]: > 95%
pIC50 [4]: 5.00

COc1ccc2[nH]c([S+]([O-])Cc3ncc(C)c(OC)c3C)nc2n1 (configuration not stated) [TENATOPRAZOLE]
pIC50 [3]: < 4.00
inhibition [2]: inactive
pIC50 [4]: 5.74
inhibition [1]: > 55%

CC1=C(/C=C/C(C)=C/C=C/C(C)=C/C(=O)O)C(C)(C)CCC1 [TRETINOIN]
Activity [5]: 100%
pIC50 [3]: 3.52
Ratio IC50 (Mus musculus): 10
inhibition [2]: inactive
pIC50 [4]: 4.54
inhibition [1]: > 55%
Activity [6]: < 5%

Cc1c(C)c2c(c(C)c1O)CCC(C)(COc1ccc(CC3SC(=O)NC3=O)cc1)O2 (configuration not stated) [TROGLITAZONE]
pIC50 [3]: 4.21
Ratio IC50 (Mus musculus): 14
inhibition [2]: < 20%
pIC50 [4]: 5.35
inhibition [1]: > 55%

AURANOFIN
inhibition [7]: > 55%
